Measurements: US8604070B2, “Use of inhibitors of the renin-angiotensin system” (FinVector Vision Therapies, Ltd., priority 1997, dated 2013)
“Also recorded” adds a separate entry of the source.

How the values were obtained:
[1] = Military recruits, 12 weeks training, randomised Losartan or placebo; assay type: in vivo, human; conditions: after 12 weeks training
From the text: Ninety military recruits were studied before and after military training of 12 weeks duration. These were randomised to receive the AT1-receptor antagonist Losartan or placebo.

[2] = Cachectic CHF patients treated with Losartan: clinical status, body composition, strength, treadmill; assay type: in vivo, human
Procedure: Patient 1 had cachexia due to chronic heart failure (CHF) (person, weight 50.0 kg, height 178 cm, previous weight loss 15.3 kg in 3 years=chronic weight loss). Patient 2 had CHF and a muscle myopathy suffering from idiopathic cachexia (person, weight 62 kg, height 180 cm, previous weight loss 11 kg in year=recent weight loss). Each was treated with Losartan (50 mg once daily). Clinical status and parameters of body composition, strength and treadmill exercise capacity were studies, at baseline and during follow-up. Both patients had evidence of CHF with impaired exercise capacity and impaired left ventricular function (LVEF<40%).
Bioelectrical impedance analysis (patient 1 and 2) was performed in the erect position using a body fat analyser (TANITA TBF-305, Tanita Corporation, Illinois, USA). Lean and fat mass were automatically analysed based on equations supplied and programmed into the machine by the manufacturer. These equations are based upon a comparison with measurements in a health population.
Dual energy X-ray absorptiometry (DEXA) (patient 1): Whole body DEXA-scans were performed using a Lunar model DPXIQ total body scanner (Lunar Radiation Company, Madison, Wisc., USA, Lunar system software version 4.3c). The subject was at each time point scanned rectilinearly from head to toe. A scan takes less than 20 min. The mean radiation dose per scan is reported to be about 0.75 μSv (53), about 1/50th of a normal chest X-ray. The DEXA method can be used to obtain from body density analyses values of fat tissue mass, lean tissue mass. The technical details of DEXA, performance and segment demarcation have been described (54,55). The error of lean tissue measurements is […] and of fat tissue measurements <5% (56).
Treadmill exercise test (Patients 1 and 2): The patients underwent symptom limited treadmill exercise testing. A standard Bruce protocol with the addition of a “stage 0” consisting of 3 min at a speed of 1 mile per hour with a 5% gradient was used. The patients breathed through a one-way valve connected to a respiratory mass spectrometer (Amis 2000, Odense, Denmark) and minute ventilation, oxygen consumption and carbon dioxide production were calculated on line every 10 seconds using a standard inert gas dilution technique. Patients were encouraged to exercise to exhaustion. Exercise time and oxygen consumption at peak exercise adjusted for total body weight (peak V02 in ml/kg/min) were measured as an index of the exercise capacity.
Assessment of quadriceps muscle strength (Patients 1 and 2): The subjects were seated in a rigid frame, with the legs hanging freely. An inelastic strap attached the ankle to a pressure transducer. The recording (Multitrace 2, §, Jersey, Channel Islands) from the pressure transducer was used to assess strength and to provide visual feedback to the subject. […] The best of three voluntary contractions on each leg, with a rest period of at least one minute in-between, was taken to represent the maximal voluntary quadriceps muscle strength of the right and left leg, respectively.

[3] = human skeletal muscle; cited from earlier work
renin gene expression = conditions: captopril administration; cited from earlier work
[4] = Re-analysis of SOLVD treatment trial: cardiac cachexia and survival; assay type: in vivo, human
From the text: The SOLVD treatment study (57) was a randomized, double-blind, and placebo-controlled trial investigating the effects of enaiapril treatment in clinically stable patients with a LVEF of 35% or less and evidence of overt congestive heart failure. The precis e details of study organisation, inclusion criteria, run-in period (2 to 7 days) and stabilization period (14 to 17 days), randomisation, treatment titration and follow-up have been reported previously (57). Based also on data not otherwise available, the results have been re-analysed, restricted to subjects who participated in the SOLVD treatment trial, who had been free of edema at baseline, who had survived for at least 4 months thereafter, who had weight measurements at baseline and from at least one follow-up visit at 4 months or later.
Of the 2082 patients, 1055 patients were randomised to treatment with enalapril (2.5 to 20 mg per pay) and 1027 patients to treatment with placebo. Body weight at baseline and during follow-up were measured per protocol. Body height was not recorded.
Comparison of means between groups was carried out using an unpaired t-test. Comparison of proportions between groups was made by employing the chi-square test. […] To address the question of whether or not ACE inhibitors influence the risk of first occunence of cachexia, the cumulative incidence of cachexia in the two treatment groups was plotted, and analysed employing the log-rank statistic (59). In the analysis of first occunence of cardiac cachexia, at any given follow-up visit, absence of information on cardiac cachexia (i.e. weight not documented at this visit) is treated as censored. The effect of cardiac cachexia on survival is assessed using Cox proportional hazard analysis (58). For these analyses, cardiac cachexia is treated as a time-dependent covariate. The assessment of cardiac cachexia at 4, 8, and 12 months was used in the analysis. These are the time points in the follow-up period with relatively high proportion of complete information on cachexia status.
The primary analysis was intention-to-treat. Statistical significance is claimed at a computed p-value <0.05 (two-sided testing). Estimates of effects are provided along with their 95% confidence intervals. Results are adjusted for a priori identified prognostic factors such as age, gender, NYHA functional class, LVEF (up to or more than 25%), and treatment status (enalapril vs placebo, in the case of assessing the effect of cardiac cachexia on survival).

rat cardiomyocytes [5] = assay: Mitochondrial membrane potential (ΔΨm) by Rh123 flow cytometry; assay type: cell-based; conditions: 1 μM, pre-treatment for 36 hours
From the text: (§1) It is based on observation of the potential difference (ΔΨm) across the inner mitochondrial membrane that is generated by the extrusion of protons to the outside of the mitochondrion during the transport of electrons from electron-carrying coenzymes to molecular oxygen. Part of the energy stored in ΔΨm is utilised to support the synthesis of most of the ATP derived from aerobic metabolism. Thus, ΔΨm is an indicator of the energisation state of the mitochondrion, and also of the efficiency of oxygen utilisation to generate chemical energy. To investigate whether some of the therapeutic properties of ACE inhibitors could be accounted for by an increase in ΔΨm, this parameter was examined in rat cardiomyocytes, following pre-treatment with the ACE inhibitor lisinopril.
More particularly, cardiomyocytes were isolated from new-born Sprague-Dawley rats hearts and maintained in 30 mm tissue culture dishes in the presence of DMEM supplemented with 1% foetal calf serum at 37° C. in a humidified 5% CO2 atmosphere. […]
To measure ΔΨm, the mitochondrial-specific probes rhodamine 123 (Rh123) and 5,5′,6,6′-tetrachloro-1,1′,3,3′-tetraethylbenzimidazolocarbocyanine iodide (JC-1) were used. […] Data were acquired and analysed using Lysis II software (Becton Dickinson).

rat cardiomyocytes [6] = assay: Mitochondrial membrane potential (ΔΨm) by JC-1 flow cytometry; assay type: cell-based; conditions: 1 μM
From the text: as §1
More particularly, cardiomyocytes were isolated from new-born Sprague-Dawley rats hearts and maintained in 30 mm tissue culture dishes in the presence of DMEM supplemented with 1% foetal calf serum at 37° C. in a humidified 5% CO2 atmosphere. For experiments, cultures were treated with 1 μM lisinopril or with an equivalent amount of vehicle for various lengths of time, before analysis of ΔΨm.
To measure ΔΨm, the mitochondrial-specific probes rhodamine 123 (Rh123) and 5,5′,6,6′-tetrachloro-1,1′,3,3′-tetraethylbenzimidazolocarbocyanine iodide (JC-1) were used. Cells were incubated for 15 min with 2.5 μM Rh123 or for 10 min with […] JC-1 (Molecular Probes) in fresh culture medium, at 37° C. and 5% CO2. […] Data were acquired and analysed using Lysis II software (Becton Dickinson).
JC-1 is a more reliable and sensitive fluorescent probe for assessing changes in ΔΨm. At low concentrations, JC-1 exists mainly in a monomeric form which is characterised by the emission of green fluorescence. […] These aggregates are characterized by the emission of red fluorescence. Thus, an increase in the red to green fluorescence ratio indicates an increase in ΔΨm. […] Thus, the ratio of red to green fluorescence (□) increased as the time of incubation with lisinopril progressed.

[7] = 5 μg/kg/day, rats; cited from earlier work
[8] = low dose, humans; cited from earlier work
[9] = 2.5 mg; cited from earlier work
[10] = rat hind limb; cited from earlier work
[11] = 50 mg once daily, both patients

For `CCCCc1nc(Cl)c(CO)n1Cc1ccc(-c2ccccc2-c2nn[nH]n2)cc1` [Losartan], the “gain in VO2 max at anaerobic threshold” value ([1]; DD genotype) was -1.8 ± 6.3 mL/min, the “gain in VO2 max at anaerobic threshold” value ([1]; II genotype) was 0.3 ± 6.3 mL/min and the “exercise capacity (exercise time, peak VO2)” value [2, 11] was “improved”. The side-effects of treatment [2, 11] was “No side-effects of treatment were observed”, the quadriceps muscle strength ([2]; 50 mg once daily, both patients, both legs) was “improved” and the “improvement in NYHA symptom class” value ([2]; 50 mg once daily, both patients, follow-up 126 and 83 days) was 1 NYHA symptom class. For the same compound, the weight gain ([2]; patient 1, 50 mg once daily, 126 days, lean and fat tissue gain) was 4.6 kg, the weight course ([2]; patient 2, 50 mg once daily, 83 days) was “stopping the process of weight loss” and the insulin sensitivity [3] was “improves insulin sensitivity”.
For `C[C@H](CS)C(=O)N1CCC[C@H]1C(=O)O` [captopril], the “increase in liver renin gene expression” value (renin gene expression) is given as 3 fold.
For `CCOC(=O)[C@H](CCc1ccccc1)N[C@@H](C)C(=O)N1CCC[C@H]1C(=O)O` [enalapril], the “risk of developing cardiac cachexia, RR (crude effect of treatment allocation)” value ([4]; 2.5 to 20 mg per day vs placebo, CHF patients) was 0.81, the “patients with weight loss of at least 7.5% with subsequently recorded weights equal to or higher than baseline” value ([4]; enalapril group) was 6 patients and the effect on survival ([4]; independent of age, gender, NYHA class, LVEF, p<0.01) was “significantly beneficial effect on survival; also recorded: reduced the frequency of the risk of death”. The “reduction of the risk of developing cardiac cachexia” value ([4]; overall) was 19%.
In the case of `NCCCC[C@H](N[C@@H](CCc1ccccc1)C(=O)O)C(=O)N1CCC[C@H]1C(=O)O` [lisinopril], the “increase in Rh123 fluorescence” value (rat cardiomyocytes [5]) is reported as “about 30%”, the “green fluorescence (JC-1 monomer)” value (rat cardiomyocytes [6]; various lengths of time) is reported as “corresponding decrease” and the “red fluorescence (JC-1 aggregates)” value (rat cardiomyocytes [6]; various lengths of time) is reported as “progressive increase”. For the same compound, the “ratio of red to green fluorescence” value (rat cardiomyocytes [6]; with time of incubation) was “increased”.
In the case of `CCOC(=O)[C@H](CCc1ccccc1)N[C@@H](C)C(=O)N1[C@H](C(=O)O)C[C@@H]2CCC[C@@H]21` [ramipril], the “effect on systolic blood pressure” value [7] is given as “no effect on systolic blood pressure”, the “effect on systemic blood pressure” value [8] is given as “without any recordable effect on systemic blood pressure” and the “frequency of first-dose fall in blood pressure” value [9] is given as “same frequency as is seen with placebo”.
For “angiotensin II (DRVYIHPF; Angiotensin-2; UniProt P01019 25-32, looked up) [ATII]”, the “O2 usage and twitch tension” value [10] is given as “increases”.
